Test results: patent US9644000B2, “V1a receptor agonists” (Ferring B.V., priority 2012, dated 2017)
*1 amine or outer side, *2 acyl side, *3 side chain or, on linkers, in order; H or OH if unused. Where a SMILES comes first, the peptide text is derived from it. Bridges are numbered along the chain shown (N, C = ends). Roman numbers before positions name the chains, in order. [ ]: non-standard residue; d: D form. The star is where a group is joined. d(isoGln) = NC(=O)[C@@H](CCC(=O)[*:2])N[*:1]; isoGln = NC(=O)[C@H](CCC(=O)[*:2])N[*:1]; d(εLys) = N[C@H](CCCCN[*:1])C(=O)[*:2]; Aad = N[C@@H](CCCC(=O)O)C(=O)O; Cit = NC(=O)NCCC[C@H](N)C(=O)O; Dab = NCC[C@H](N)C(=O)O; PhAc = O=C(Cc1ccccc1)*

Legend:
human V1aR = target: T1, human V1aR (Homo sapiens, UniProt P37288); assay: FLIPR calcium agonist assay in HEK-flpin cells expressing the vasopressin V1a receptor; assay type: cell-based
T1 construct: expressed in transfected cells
T1 sequence (P37288 whole entry): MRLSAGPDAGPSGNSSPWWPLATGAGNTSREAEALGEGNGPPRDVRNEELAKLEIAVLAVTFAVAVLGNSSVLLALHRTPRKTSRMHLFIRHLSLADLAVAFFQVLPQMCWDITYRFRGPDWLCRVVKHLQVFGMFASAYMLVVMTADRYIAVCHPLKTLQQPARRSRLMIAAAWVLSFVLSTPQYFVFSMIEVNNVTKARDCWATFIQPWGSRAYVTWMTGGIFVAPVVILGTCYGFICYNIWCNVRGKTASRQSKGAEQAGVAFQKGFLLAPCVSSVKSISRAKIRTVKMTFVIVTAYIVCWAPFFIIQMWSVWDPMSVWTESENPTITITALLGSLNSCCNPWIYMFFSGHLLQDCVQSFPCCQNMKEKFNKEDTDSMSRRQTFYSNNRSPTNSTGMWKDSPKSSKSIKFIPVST
Description: Efficacy (% MPE) is also determined as the percentage of maximal possible effect. This agonist assay utilizes cells from a stable cell line (HEK-flpin) expressing the vasopressin V1a receptor. Intracellular calcium increase in response to agonist is measured through real-time fluorescence of an intracellular calcium-sensitive dye. Cells are exposed to varying concentrations of test agonist compounds whereupon release of intracellular calcium is measured to determine the agonist potency and efficacy.
The cell line stably expresses the lacZ-Zeocin™ fusion gene and is designed for use with the Flp-In™ expression vector containing the gene of interest and the Flp recombinase expression plasmid, pOG44. The cell line contains a single integrated Flp Recombination Target (FRT) site from pFRT/lacZeo or pFRT/lacZeo2. To generate the HEK-flpin cell line stably expressing the human V1aR, the cells were co-transfected with the Flp-In™ expression vector containing the gene of interest (pcDNA5/FRT-hV1aR) and the Flp recombinase expression plasmid pOG44. Flp recombinase mediates insertion of the Flp-In™ expression vector into the genome at the integrated FRT site through site-specific DNA recombination. Stable cell lines expressing the hV1aR from the Flp-In™ expression vector can be generated by selection using hygromycin B. See Life Technologies/Invitrogen manual, Growth and Maintenance of Flp-In™ Cell Lines, Version E, published Feb.
Efficacy of this compound was set to be 100%. A stock solution of 5 mM was made up in DMSO and stored at −20° C.
HEK-flpin-hV1aR, cmcqV1aR, dV1aR and pV1aR cells were maintained in DMEM containing 10% (v/v) FBS-HI, 4 mM GlutaMAX™-I, 25 μg/mL Hygromycin B at 37° C. under 5% CO2 in a humidified atmosphere. […]
The cell plates were transferred to FLIPR Tetra, along with a 384 well V-bottom plate pre-loaded with half-log concentrations of test compounds at 10× final test concentrations. […] The agonist-induced fluorescence signal was then measured for 180 s with initial 120 readings at 1-second intervals followed by 20 readings at 3-second intervals. […]

[1] = HRS1 patients; cited from earlier work

For CC[C@H](C)[C@@H]1NC(=O)[C@H](Cc2ccccc2)NC(=O)[C@@H](N)CSSC[C@@H](C(=O)N2CCC[C@H]2C(=O)N[C@@H](CCNC(=O)[C@H](N)CCCCNC(=O)CC[C@@H](NC(=O)[C@H](CCCNC(=N)N)NC(=O)[C@@H]2CCCN2C(=O)[C@H](CCCNC(N)=O)NC(=O)[C@H](CC(N)=O)NC(=O)[C@H](CCC(N)=O)NC(=O)[C@H](Cc2ccccc2)NC(=O)[C@@H](Cc2ccc(OC)cc2)NC(=O)Cc2ccccc2)C(N)=O)C(=O)NCC(N)=O)NC(=O)[C@H](CC(N)=O)NC(=O)[C@H](CCC(N)=O)NC1=O [Compound 55] (I: H-CFIQNCP[Dab]G-NH2 / II: PhAc-[dY](Me)FQN[Cit]PR[d(isoGln)][d(εLys)]; disulfide I:1-I:6; amide I:8-II:C), which EC50 (human V1aR) is on record?
The EC50 was 1.7 nM.

Which EC50 (human V1aR) does the source give for CC[C@H](C)[C@@H]1NC(=O)[C@H](Cc2ccccc2)NC(=O)[C@@H](N)CSSC[C@@H](C(=O)N2CCC[C@H]2C(=O)N[C@@H](CCNC(=O)[C@H](N)CCCCNC(=O)CC[C@H](NC(=O)[C@H](CCCNC(=N)N)NC(=O)[C@@H]2CCCN2C(=O)[C@H](CCN)NC(=O)[C@H](CC(N)=O)NC(=O)[C@H](CCC(N)=O)NC(=O)[C@H](Cc2ccccc2)NC(=O)[C@@H](Cc2ccc(OC)cc2)NC(=O)Cc2ccccc2)C(N)=O)C(=O)NCC(N)=O)NC(=O)[C@H](CC(N)=O)NC(=O)[C@H](CC(N)=O)NC1=O [Compound 59] (I: H-CFINNCP[Dab]G-NH2 / II: PhAc-[dY](Me)FQN[Dab]PR[isoGln][d(εLys)]; disulfide I:1-I:6; amide I:8-II:C) here?
The EC50 was 1.7 nM.

With CC[C@H](C)[C@@H]1NC(=O)[C@H](Cc2ccccc2)NC(=O)[C@@H](N)CSSC[C@@H](C(=O)N2CCC[C@H]2C(=O)N[C@@H](CCNC(=O)[C@H](N)CCCCNC(=O)CC[C@H](NC(=O)[C@H](CCCNC(=N)N)NC(=O)[C@@H]2CCCN2C(=O)[C@H](C)NC(=O)[C@H](CC(N)=O)NC(=O)[C@H](CCC(N)=O)NC(=O)[C@H](Cc2ccccc2)NC(=O)[C@@H](Cc2ccc(OC)cc2)NC(=O)Cc2ccccc2)C(N)=O)C(=O)NCC(N)=O)NC(=O)[C@H](CC(N)=O)NC(=O)[C@H](CCCC(N)=O)NC1=O [Compound 62] (I: H-CFI[Aad](NH2)NCP[Dab]G-NH2 / II: PhAc-[dY](Me)FQNAPR[isoGln][d(εLys)]; disulfide I:1-I:6; amide I:8-II:C) as the molecule, how does the “Efficacy Avg. (% MPE, as compared to AVP)” value (human V1aR; HEK-flpin-hV1aR cells, AVP efficacy set to 100%) read?
Its value is 31%.

With NCCCC[C@H](NC(=O)[C@@H]1CCCN1C(=O)[C@@H]1CSSC[C@H](NC(=O)CNC(=O)CNC(=O)CN)C(=O)N[C@@H](Cc2ccc(O)cc2)C(=O)N[C@@H](Cc2ccccc2)C(=O)N[C@@H](CCC(N)=O)C(=O)N[C@@H](CC(N)=O)C(=O)N1)C(=O)NCC(N)=O [Terlipressin, terlipressin] (H-GGGCYFQNCPKG-NH2; disulfide 4-9) as the molecule, how does the “patients in whom renal failure is reversed” value [1] read?
Its value is 30-40%.
